ChEMBL document CHEMBL1127637, “Antiplatelet agents based on cyclooxygenase inhibition without ulcerogenesis. Evaluation and synthesis of 4,5-bis(4-methoxyphenyl)-2-substituted-thiazoles” (J Med Chem, 1994)

Experiments:
Format in all cases: functional
Oryctolagus cuniculus [1] = organism: Oryctolagus cuniculus; experiment: In vitro antiplatelet activity against arachidonic acid induced malondialdehyde production
Rattus norvegicus [2] = organism: Rattus norvegicus; experiment: In vitro vasodilatory activity in isolated rat aorta; conditions: read-out: ED50 (the source's name)
Cavia porcellus [3] = experiment: Inhibitory effect on platelet aggregation induced by Arachidonic acid (AA) in guinea pigs ex vivo at a dose of 1 mg/kg after 1 hr of oral administration
Cavia porcellus [4] = experiment: Inhibitory effect on platelet aggregation induced by Arachidonic acid in guinea pigs ex vivo at a dose of 3.2 mg/Kg after 1 hr of oral administration
Cavia porcellus [5] = experiment: Inhibitory effect on platelet aggregation induced by Collagen in guinea pigs ex vivo at a dose of 1 mg/Kg after 1 hr of oral administration
Cavia porcellus [6] = experiment: Inhibitory effect on platelet aggregation induced by Collagen in guinea pigs ex vivo at a dose of 3.2 mg/Kg after 1 hr of oral administration
Cavia porcellus [7] = experiment: Inhibitory effect on platelet aggregation induced by Arachidonic acid (AA) in guinea pigs ex vivo at a dose of 1 mg/kg after 6 hr of oral administration
Cavia porcellus [8] = experiment: Inhibitory effect on platelet aggregation induced by Arachidonic acid (AA) in guinea pigs ex vivo at a dose of 3.2 mg/Kg after 6 hr of oral administration
Cavia porcellus [9] = experiment: Inhibitory effect on platelet aggregation induced by Collagen in guinea pigs ex vivo at a dose of 1 mg/Kg after 6 hr of oral administration
Cavia porcellus [10] = experiment: Inhibitory effect on platelet aggregation induced by Collagen in guinea pigs ex vivo at a dose of 3.2 mg/Kg after 6 hr of oral administration
Rattus norvegicus [11] = experiment: Compound was evaluated for collagen-induced platelet aggregation ex vivo in rat at the dose of 100 mg/Kg
Rattus norvegicus [12] = experiment: Induction of acute stomach lesion at a dose of 100 mg/Kg
Cavia porcellus [13] = experiment: Inhibitory effect on platelet aggregation induced by Arachidonic acid (AA) in guinea pigs ex vivo at a dose of 3.2 mg/Kg after 1 hr of oral administration
Oryctolagus cuniculus [14] = organism: Oryctolagus cuniculus; experiment: Inhibitory activity on the MDA production at 0.1 uM
Rattus norvegicus [15] = experiment: Compound was evaluated for collagen-induced platelet aggregation in rat ex vivo at the dose of 32 mg/Kg
Rattus norvegicus [16] = experiment: Induction of acute stomach lesion at a dose of 10 mg/Kg
Rattus norvegicus [17] = experiment: Induction of acute stomach lesion at a dose of 32 mg/Kg
Rattus norvegicus [18] = experiment: Induction of acute stomach lesion at a dose of 320 mg/Kg
Cavia porcellus [19] = experiment: Inhibitory effect on platelet aggregation induced by Arachidonic acid (AA) in guinea pigs ex vivo at a dose of 1 mg/Kg after 1 hr of oral administration
Cavia porcellus [20] = experiment: Inhibitory effect on platelet aggregation induced by Arachidonic acid (AA) in guinea pigs ex vivo at a dose of 1 mg/Kg after 6 hr of oral administration
Oryctolagus cuniculus [21] = organism: Oryctolagus cuniculus; experiment: Inhibitory activity on the MDA production at 1 uM
Oryctolagus cuniculus [22] = organism: Oryctolagus cuniculus; experiment: Inhibitory activity on the MDA production at 0.01 uM
Cavia porcellus [23] = experiment: ccInhibitory effect on platelet aggregation induced by Arachidonic acid (AA) in guinea pigs ex vivo at a dose of 3.2 mg/Kg after 6 hr of oral administration
Rattus norvegicus [24] = experiment: Induction of acute stomach lesion at a dose of 100 mg/Kg was determined in 5 animals
Rattus norvegicus [25] = experiment: Induction of acute stomach lesion at a dose of 32 mg/Kg was determined in 5 animals

Structure (SMILES)	IC50 (Oryctolagus cuniculus [1]) [nM]	EC50 (Rattus norvegicus [2]) [nM]	also measured
COc1ccc(-c2nc(/N=C(\N)n3ccnc3)sc2-c2ccc(OC)cc2)cc1	> 100		
CC/N=C(/N)Nc1nc(-c2ccc(OC)cc2)c(-c2ccc(OC)cc2)s1	> 100		
COc1ccc(-c2nc(C(=O)N3CCCN(C)CC3)sc2-c2ccc(OC)cc2)cc1	> 100	4300	
COc1ccc(-c2nc(C(=O)NCCN3CCOCC3)sc2-c2ccc(OC)cc2)cc1	> 1000	8700	
CNC(=N)Nc1nc(-c2ccc(OC)cc2)c(-c2ccc(OC)cc2)s1	62	1200	Inhibition % (Cavia porcellus [3]): 100%; Inhibition % (Cavia porcellus [4]): 100%; Inhibition % (Cavia porcellus [5]): 9%; Inhibition % (Cavia porcellus [6]): 76.2%
COc1ccc(-c2nc(C(=O)N3CCN(C)CC3)sc2-c2ccc(OC)cc2)cc1 [FR-122047]	88		inhibition in vivo at 1 mg/kg (Cavia porcellus [7]): 100%; inhibition in vivo at 3.2 mg/kg (Cavia porcellus [8]): 100%; inhibition in vivo at 1 mg/kg (Cavia porcellus [9]): 83.1%; inhibition in vivo at 3.2 mg/kg (Cavia porcellus [10]): 100%; ED50 (Rattus norvegicus [11]): 1.4 mg/kg; Ulcer index (Rattus norvegicus [12]): 0
COc1ccc(-c2nc(CN(C)C)sc2-c2ccc(OC)cc2)cc1	96	8400	Inhibition % (Cavia porcellus [13]): 100%; Inhibition % (Cavia porcellus [6]): 100%; Inhibition % (Cavia porcellus [8]): 0%; Inhibition % (Cavia porcellus [10]): 0%
C/N=C(/NC)Nc1nc(-c2ccc(OC)cc2)c(-c2ccc(OC)cc2)s1	970		
COc1ccc(-c2nc(C(=O)N(C)C)sc2-c2ccc(OC)cc2)cc1	< 100		inhibition in vivo at 3.2 mg/kg (Cavia porcellus [8]): 89%; inhibition in vivo at 3.2 mg/kg (Cavia porcellus [10]): 4.1%; Inhibition (Oryctolagus cuniculus [14]): 51.4%
COc1ccc(-c2nc(N=C(N)N)sc2-c2ccc(OC)cc2)cc1	31000	2000	
COc1ccc(-c2nc(C(=O)N=C(N)N)sc2-c2ccc(OC)cc2)cc1	> 100	> 100000	
CC(=O)Oc1ccccc1C(=O)O [ASPIRIN]	16000	> 600000	Inhibition % (Cavia porcellus [13]): 64%; Inhibition % (Cavia porcellus [6]): 9%; ED50 (Rattus norvegicus [15]): 8.4 mg/kg; Ulcer index (Rattus norvegicus [16]): 0.6; Ulcer index (Rattus norvegicus [12]): 2.2; Ulcer index (Rattus norvegicus [17]): 2; Ulcer index (Rattus norvegicus [18]): 3.8
COc1ccc(-c2nc(/N=C(\N)N(C)C)sc2-c2ccc(OC)cc2)cc1	37		Inhibition % (Cavia porcellus [19]): 48.5%; Inhibition % (Cavia porcellus [13]): 100%; Inhibition % (Cavia porcellus [5]): 33.1%; Inhibition % (Cavia porcellus [6]): 100%; Inhibition % (Cavia porcellus [8]): 100%; Inhibition % (Cavia porcellus [10]): 98%
Cc1cc(/N=C(\Nc2nccs2)NC2CCCCC2)c2ccccc2n1 [TIMEGADINE]	31	2500	Inhibition % (Cavia porcellus [19]): 14.5%; Inhibition % (Cavia porcellus [13]): 52.4%
COc1ccc(-c2nc(CNC(=O)CSC)sc2-c2ccc(OC)cc2)cc1	< 100	6000	inhibition in vivo at 1 mg/kg (Cavia porcellus [20]): -3.9%; inhibition in vivo at 1 mg/kg (Cavia porcellus [9]): -13.3%; Inhibition (Oryctolagus cuniculus [14]): 73.3%
COc1ccc(-c2nc(C(N)=O)sc2-c2ccc(OC)cc2)cc1	> 1000		
CCOC(=O)/C=C/c1nc(-c2ccc(OC)cc2)c(-c2ccc(OC)cc2)s1	20	> 100000	
COc1ccc(-c2nc(C(=O)N3CCNC(CCO)C3)sc2-c2ccc(OC)cc2)cc1 (stereo unspecified)	> 1000	9500	
COc1ccc(-c2nc(/C=C/C(=O)O)sc2-c2ccc(OC)cc2)cc1	> 100	55000	
CCOC(=O)/C(C#N)=C/c1nc(-c2ccc(OC)cc2)c(-c2ccc(OC)cc2)s1	< 10	> 100000	
COc1ccc(-c2nc(/N=C(\N)NC(C)C)sc2-c2ccc(OC)cc2)cc1	> 100	9100	
COc1ccc(-c2nc(CNC(C)=O)sc2-c2ccc(OC)cc2)cc1	15	8100	Inhibition % (Cavia porcellus [20]): 60.9%; Inhibition % (Cavia porcellus [9]): 26.6%
COc1ccc(-c2nc(C(=O)N3CCN(C(=O)NC(C)C)CC3)sc2-c2ccc(OC)cc2)cc1	> 1000	15000	

Structure (SMILES)	IC50 (Oryctolagus cuniculus [1]) [nM]	EC50 (Rattus norvegicus [2]) [nM]	also measured
COc1ccc(-c2nc(CCC(=O)O)sc2-c2ccc(OC)cc2)cc1	< 100	> 100000	
COc1ccc(-c2nc(C3=NNC(=O)CC3)sc2-c2ccc(OC)cc2)cc1	> 1000		
CCOC(=O)CC(c1nc(-c2ccc(OC)cc2)c(-c2ccc(OC)cc2)s1)N1CCN(C)CC1 (stereo unspecified)	> 1000	2600	
COc1ccc(-c2nc(CNC(=O)N3CCOCC3)sc2-c2ccc(OC)cc2)cc1	660	12000	
COc1ccc(-c2nc(/N=C(\N)NC3CCCCC3)sc2-c2ccc(OC)cc2)cc1	> 1000	> 100000	
COc1ccc(-c2nc(/N=C(\N)N3CCOCC3)sc2-c2ccc(OC)cc2)cc1	< 1000	66000	Inhibition (Oryctolagus cuniculus [21]): 79.9%
COc1ccc(-c2nc(C(=O)N3CCOCC3)sc2-c2ccc(OC)cc2)cc1	< 10	< 100000	Inhibition (Oryctolagus cuniculus [22]): 74.8%
CCOC(=O)C1=C(C)N=C(C)/C(=C(/O)OCC)C1c1nc(-c2ccc(OC)cc2)c(-c2ccc(OC)cc2)s1 (stereo unspecified)	< 100	> 32000	
COc1ccc(-c2nc(CNC(=O)CSc3ccccc3)sc2-c2ccc(OC)cc2)cc1	< 100	4200	inhibition in vivo at 1 mg/kg (Cavia porcellus [20]): 16.5%; inhibition in vivo at 1 mg/kg (Cavia porcellus [9]): -2.6%; Inhibition (Oryctolagus cuniculus [14]): 73.6%
CNC(=O)NCc1nc(-c2ccc(OC)cc2)c(-c2ccc(OC)cc2)s1	22	15000	
COc1ccc(-c2nc(CN)sc2-c2ccc(OC)cc2)cc1	> 100	7700	
COc1ccc(-c2nc(/C=C/C(=O)N3CCN(C)CC3)sc2-c2ccc(OC)cc2)cc1	> 1000	20000	
CCN(CC)C(=O)c1nc(-c2ccc(OC)cc2)c(-c2ccc(OC)cc2)s1	< 10	14000	Inhibition (Oryctolagus cuniculus [22]): 65%
COc1ccc(-c2nc(C(=O)N3CCCCC3)sc2-c2ccc(OC)cc2)cc1	> 1000	11000	
COc1ccc(-c2nc(CNC(=O)NC(C)C)sc2-c2ccc(OC)cc2)cc1	42	5700	inhibition in vivo at 3.2 mg/kg (Cavia porcellus [23]): 100%; inhibition in vivo at 1 mg/kg (Cavia porcellus [20]): 100%; inhibition in vivo at 1 mg/kg (Cavia porcellus [9]): 100%; inhibition in vivo at 3.2 mg/kg (Cavia porcellus [10]): 100%
COc1ccc(-c2nc(N3CCN(C)CC3)sc2-c2ccc(OC)cc2)cc1	39	5200	inhibition in vivo at 1 mg/kg (Cavia porcellus [20]): 60.9%; inhibition in vivo at 1 mg/kg (Cavia porcellus [9]): 65.4%
COc1ccc(-c2nc(CNC(=O)c3cccnc3)sc2-c2ccc(OC)cc2)cc1	25		Inhibition % (Cavia porcellus [8]): 40.3%; Inhibition % (Cavia porcellus [10]): 37.4%
COc1ccc(-c2nc(CNC(=O)C3=NNC(=O)CC3)sc2-c2ccc(OC)cc2)cc1	55		inhibition in vivo at 1 mg/kg (Cavia porcellus [20]): 100%; inhibition in vivo at 3.2 mg/kg (Cavia porcellus [8]): 100%; inhibition in vivo at 1 mg/kg (Cavia porcellus [9]): 84.3%; inhibition in vivo at 3.2 mg/kg (Cavia porcellus [10]): 94.1%
COc1ccc(-c2nc(C(=O)NCCc3cccnc3)sc2-c2ccc(OC)cc2)cc1	< 100	20000	Inhibition (Oryctolagus cuniculus [14]): 56.6%
COc1ccc(-c2nc(C(=O)N3CCCCC3CCO)sc2-c2ccc(OC)cc2)cc1 (stereo unspecified)	45	6800	Inhibition % (Cavia porcellus [8]): 100%; Inhibition % (Cavia porcellus [10]): 100%
COc1ccc(-c2nc(C(F)(F)F)sc2-c2ccc(OC)cc2)cc1 [ITAZIGREL]	5.6	> 300000	Inhibition % (Cavia porcellus [19]): 100%; Inhibition % (Cavia porcellus [5]): 100%; Inhibition % (Cavia porcellus [20]): 100%; Inhibition % (Cavia porcellus [9]): 79%; Ulcer index (Rattus norvegicus [24]): 1.4; Ulcer index (Rattus norvegicus [25]): 0.4
COc1ccc(-c2nc(C3=CCN(C)CC3)sc2-c2ccc(OC)cc2)cc1	< 10	5900	inhibition in vivo at 3.2 mg/kg (Cavia porcellus [8]): 100%; inhibition in vivo at 3.2 mg/kg (Cavia porcellus [10]): 69.3%
